Test results from patent publication US10646589B2, “Thyroid stimulating hormone receptor peptides and uses thereof” (APITOPE INTERNATIONAL NV, priority 2014, dated 2020).
Structures can show the parent of a compound that is named as a salt.

Assays:
Total thyroxine (T4) = test: Detection of hyperthyroidism: total thyroxine (T4) in serum by ELISA; assay type: in vivo, DR3tg mice
Description: Total thyroxine (T4) was measured in undiluted mouse serum (10 μl) using the CBI mouse/rat thyroxine ELISA kit (Calbiotech, Spring Valley, Calif., USA) according to the manufacturer's instructions. T4 values were computed from standards in the kit and expressed as μg/dl.
(§1) Alterations in top doses, and correspondingly in dose escalation doses, are indicated per experiment. Starting on the day of the first peptide treatment until termination of the experiment, mice were treated either MMI or propranolol. […] New osmotic pumps were implanted after 4 weeks. […] On day 0, mice were immunized by intramuscular injection with 10^9 or 10^10 Ad-TSHR viral particles and the immunization was repeated three weeks later. […] Mice were euthanized 5 weeks after the first immunization to obtain blood, thyroid and spleen samples. TSHR-induced splenocyte proliferation, cytokine secretion and anti-TSHR antibody levels were assessed as described below.
Total thyroxine (T4) was measured in undiluted mouse serum (10 μl) using the CBI mouse/rat thyroxine ELISA kit (Calbiotech, Spring Valley, Calif., USA) according to the manufacturer's instructions. T4 values were computed from standards in the kit and expressed as μg/dl. In addition to serum T4 determinations, thyroid histology was used as a parameter for hyperthyroidism. Thyroid glands were fixed in 10% neutral buffered formalin (pH 7.5), processed to sections and stained with hematoxylin and eosin.

[1] = system: TSHR-specific splenocyte proliferation; test: Adenoviral animal model for GD: TSHR-specific splenocyte proliferation; assay type: in vivo, DR3tg mice; conditions: 10^9 Ad-TSHR; ATX-GD-459 15 nmol top dose; MMI 500 μg daily s.c. pump; to be interpreted with caution
Description: (§2) DR3tg mice were injected subcutaneously in the flank region with 22.5 pmol, 225 pmol and 2250 pmol ATX-GD-59 or control treatment on days −15, −13 and −11 respectively, followed by 3 injections of 22.5 nmol ATX-GD-59 (top dose/peptide) or control treatment on days −8, −6 and −4 (dose escalation schedule). Alterations in top doses, and correspondingly in dose escalation doses, are indicated per experiment.
as §1, with “experiment.” for “experiment. Starting on the day of the first peptide treatment until termination of the experiment, mice were treated either MMI or propranolol.”

[2] = system: anti-TSHR antibodies (IgG class); test: Adenoviral animal model for GD: detection of anti-TSHR antibodies by ELISA; assay type: in vivo, DR3tg mice
Description: as §2
Anti-TSHR antibodies (IgG class) against purified recombinant TSHR-ECD (Chesapeake-Perl) were measured using ELISA. […] The signal was developed with tetramethylbenzidine (TMB).
as §1, with “experiment.” for “experiment. Starting on the day of the first peptide treatment until termination of the experiment, mice were treated either MMI or propranolol.”
Anti-TSHR antibodies (IgG class) against purified recombinant TSHR-ECD (Chesapeake-Perl) were measured using ELISA. […] The signal was developed with tetramethylbenzidine.
The signal was developed with tetramethylbenzidine (TMB).
Alterations in top doses, and correspondingly in dose escalation doses, are indicated per experiment. On day 0, mice were immunised by intramuscular injection with 10^9 Ad-TSHR or Ad-LacZ viral particles and the immunisation was repeated three weeks later. Five weeks after the first immunisation, blood and spleens were collected.

[3] = Propranolol levels in mouse plasma by LC-MSMS; assay type: in vivo, DR3tg mice; conditions: 10 mg/kg/day IP; 60-90 minutes post-dose; weeks 0 and 5; FIG. 18
Description: Blood samples were collected between 60 and 90 minutes post-dose and individual plasma levels compared between W0 and W5.

[4] = system: TSHR-induced T cell proliferation; test: Ex vivo tolerization experiment: TSHR-induced proliferation of LN cells and splenocytes after peptide pretreatment; assay type: in vivo, DR3tg mice; conditions: vs control-treated; s.c. dose escalation schedule; top dose 5D-K1 100 μg, 9B-N 33 μg, ATX-GD-59 15 nmol/peptide; 10 days after parental peptide/CFA immunization
Description: DR3tg mice were injected subcutaneously in the flank region with 0.1 μg, 1 μg and 10 μg peptides on days −15, −13 and −11 respectively, followed by 3 injections of 100 μg (top dose/peptide) soluble peptide (5D-K1 or 9B-N) on days −8, −6 and −4 (dose escalation schedule). The ATX-GD-59 is an equimolar mix of the peptides 5D-K1 (SEQ ID NO:1) and 9B-N (SEQ ID NO:2) and the top dose mentioned (nmol) is per peptide in the cocktail. A peptide dose of 100 ug corresponds to ˜45 nmol as both systems been used in different experiments. The peptides were administered subcutaneous in PBS. Alterations in top doses/peptide, and correspondingly in dose escalation doses, are indicated per experiment. On day 0, the mice were immunized subcutaneously in the base of the tail with 50 μg corresponding to the parental peptide (non-modified 5D and/or 9B) emulsified in Complete Freund adjuvants (CFA; 2 mg/ml Mycobacterium tuberculosis H37RA (Difco Laboratories, Michigan, US) in Incomplete Freund adjuvant (Difco)) (50 μg peptide in 100 μL CFA (100 μg H37RA)/injection). Ten days after immunization, draining LN and spleens were harvested. LN cells and splenocytes were isolated and cultured in X-vivo 15 medium supplemented with 2 mM L-glutamine, 50 U/mL penicillin and 50 U/mL streptomycin (all Lonza, Verviers, Belgium) in 96-well flat bottom plates. To investigate antigen-induced cell proliferation, 0.5×10^6 cells/well were cultured (200 μL/well) for 72 hours with TSHR-ECD in a concentration range of 0-25 μg/mL or with 12.5 μg/mL purified protein derivative (PPD; immunisation control; Statens serum institut, Copenhagen, Denmark). After 72 hours in a 37° C. incubator with 5% CO2, 60 μL of cell supernatant was harvested and frozen. 20 μL/well of tritiated thymidine (PerkinElmer, Zaventem, Belgium) were then added to the cells to obtain a final concentration of 1 μCi/well. The cells were incubated at 37° C. and 5% CO2, and after 16 h, plates were frozen. Thawed plates were harvested and read on a β-counter (Wallac 1450 Microbeta Trilux Liquid Scintillation Counter) to assess cell proliferation.
DR3tg or DR4tg mice were injected subcutaneously in the flank region with 0.1 μg, 1 μg and 10 μg of peptide on days −15, −13 and −11 respectively, followed by 3 injections of 33, 75 or 100 μg peptide (depending on top dose, see Figure legends) on days −8, −6 and −4 (dose escalation schedule). Alterations in top doses, and correspondingly in dose escalation doses, are indicated per experiment. On day 0, the mice were immunised subcutaneously in the base of the tail with 50 μg antigen (non-modified parental 15-mer peptide) emulsified in CFA (peptide/CFA). […] Thawed plates were harvested and read with β-counter (Wallac 1450 Microbeta Trilux Liquid Scintillation Counter) to assess the cell proliferation.

[5] = system: Antigen-specific T cell hybridomas with fixed or not fixed VAVY or BM14 cells (APCs); test: Antigen Processing Independent Presentation System (APIPS) assay; assay type: cell-based; conditions: 25 μg/ml peptide; fixed or fresh VAVY (DR3) or BM14 (DR4) APCs; 48 h; IL-2 ELISA
Description: 5×10^4 T cell hybridoma clones specific for RNB-5 (clone 50+35) or RNB-4 (clone 164+455) and TSHR were cultured in presence of TSHR and RNB-5D-K1 or RNB-4K-GKK in combination with 5×10^4 human DR3 expressing antigen presenting B cells (VAVY) (clone 50) or with DR4 expressing antigen presenting B cells (BM14) (Clone 35, 164, 455). Antigen-Presenting Cells (APC) were viable or previously fixed with 0.5% paraformaldehyde prior to addition to the culture wells. After 48 h of co-culture, the supernatants were harvested and analysed by ELISA to assess levels of IL-2 secretion. Results from representative clones are presented.
Antigen-specific T cell hybridomas were tested for their reactivity to the peptides, presented by fixed or not fixed VAVY or BM14 cells (=APCs). 5×10^4 cells from the individual clones were cultured with 25 μg/ml peptide and 5×10^4 fixed or fresh APCs. To fixate APCs, cells were incubated with 0.5% paraformaldehyde (Merck, Darmstadt, Germany) (pH7) for 5 min at room temperature (RT). The fixation reaction was stopped by adding 0.4M glycine (Sigma-Aldrich) and washing the cells in RPMI-10% FCS. Additionally, reactivity towards human TSHR-ECD protein (Chesapeake-PERL, Savage, Md., USA) was measured to identify epitopes. After 48 h, antigen-induced IL-2 production was measured by ELISA.

[6] = co-medication MMI 500 μg daily + ATX-GD-459 15 nmol

Cn1cc[nH]c1=S [MMI, methimazole]
T4 levels, MMI 50 μg daily, model validation (Total thyroxine (T4); 50 μg dose): only showed a trend towards reduced T4 levels
T4 levels, MMI 500 μg daily, model validation (Total thyroxine (T4); daily dose of 500 μg, both at 2 and 4 weeks after first immunisation): significantly reduced
effect on serum T4 levels, MMI co-medication study (Total thyroxine (T4); week 5, MMI 500 μg daily, ATX-GD-459 15 nmol top dose, 10^9 Ad-TSHR): significantly reduced
effect on TSHR-specific splenocyte proliferation, MMI co-medication study [1]: significant reduction
effect on anti-TSHR antibody levels, MMI study ([2]; MMI 500 μg daily s.c. osmotic pump, 10^9 Ad-TSHR): had no effect
effect on anti-TSHR IgG isotypes, MMI study ([2]; MMI 500 μg daily, 10^9 Ad-TSHR): had no effect
changes in anti-TSHR IgG levels, model validation ([2]; MMI 50 or 500 μg/mouse/day s.c. pump for 4 weeks, Ad-TSHR week 0 and 3): no changes
effect on antibody reducing capability of ATX-GD-459 (IgG isotypes), MMI study [2, 6]: did not affect
influence on antibody reducing capability of ATX-GD-459 (total IgG), MMI study [2, 6]: did not influence

CC(C)NCC(O)COc1cccc2ccccc12 (centres unmarked) [propranolol, Propranolol hydrochloride]
Total T4 levels, propranolol co-medication study (Total thyroxine (T4); week 5, propranolol 10 mg/kg/day IP, ATX-GD-459 15 nmol, 10^10 Ad-TSHR): not affected
plasma levels of propranolol [3]: confirms pharmacological dose

GLKMFPDLTKVYSTD (H-GLKMFPDLTKVYSTD-NH2) [Peptide 9B-N, TSHR peptide]
reduction of TSHR-induced T cell proliferation, LN samples [4]: 33%
reduction of TSHR-induced T cell proliferation, spleen samples [4]: 41%

KKGNLPNISRIYVSIDVTGKK (H-KKGNLPNISRIYVSIDVTGKK-NH2) [RNB-4K-GKK, modified TSHR apitope peptide]
apitope status (presentation by fixed APCs, IL-2 secretion) [5]: confirmed to be apitopes

KKKKYVSIDVTLQQLESHKKK (H-KKKKYVSIDVTLQQLESHKKK-NH2) [Peptide 5D-K1, modified TSHR apitope peptide]
reduction of TSHR-induced T cell proliferation, LN samples [4]: 60%
reduction of TSHR-induced T cell proliferation, spleen samples [4]: 43%
apitope status (presentation by fixed APCs, IL-2 secretion) [5]: confirmed to be apitopes
